# In ChEMBL document CHEMBL3616418, “Discovery of Bivalent Kinase Inhibitors via Enzyme-Templated Fragment Elaboration” (ACS Med Chem Lett, 2015):
# What was measured:
# [1] = target: Tyrosine-protein kinase ABL1 (Homo sapiens, UniProt P00519); test: Inhibition of c-Abl (unknown origin)
# [2] = target: Tyrosine-protein kinase HCK (Homo sapiens, UniProt P08631); test: Inhibition of Hck (unknown origin)
# [3] = target: Proto-oncogene tyrosine-protein kinase Src (Homo sapiens, UniProt P12931, C277S/C483S); test: Inhibition of c-Src C277S, C483S, […] mutant (unknown origin)
Ki [1] [µM],Ki [2] [µM],Ki [3] [µM],SMILES
> 1250,> 1250,,C=CC(=O)N1CCCC1c1ccco1 (stereo not drawn)
,,0.2,O=C(CCS)Nc1cccc(Nc2nccc(Nc3cc(C4CC4)[nH]n3)n2)c1
